Reference: paper PMC6450621, “Changes of drug pharmacokinetics mediated by downregulation of kidney organic cation transporters Mate1 and Oct2 in a rat model of hyperuricemia” (PLoS ONE, 2019)
“And” between values parts separate entries of the source, which are not always exact repeats. Identical values can stand only once.

Tests used:
[1] = Plasma concentration of oxonic acid and adenine in hyperuricemic rats; type: in vivo, rat; settings: hyperuricemic rats given oral oxonic acid […] and adenine 0.1 g/kg; detection limit 100 μM for oxonic acid
human MATE1 = biological target: T1, human MATE1 (Homo sapiens, UniProt Q96FL8); test: Uptake of [3H]MPP+ by MATE1-expressing HEK293 cells; type: cell-based; settings: for MATE1-mediated uptake of [3H]MPP+, percentage of control: HEK293/hMATE1 minus mock, 0.25 nM [3H]MPP+, 0.5 min, 37°C; for MATE1-mediated uptake of MPP+, % of Control: after subtraction of uptake by mock cells; for MATE1-mediated uptake of MPP+, % of Control / C/M ratio of MPP+ uptake, MATE1-expressing cells: replicates and mean
T1 construct: expressed in transfected cells; host or cells: HEK293 (HEK293/hMATE1; gift from Dr. Inoue, Tokyo University of Pharmacy and Life Science)
T1 sequence (Q96FL8 1-570): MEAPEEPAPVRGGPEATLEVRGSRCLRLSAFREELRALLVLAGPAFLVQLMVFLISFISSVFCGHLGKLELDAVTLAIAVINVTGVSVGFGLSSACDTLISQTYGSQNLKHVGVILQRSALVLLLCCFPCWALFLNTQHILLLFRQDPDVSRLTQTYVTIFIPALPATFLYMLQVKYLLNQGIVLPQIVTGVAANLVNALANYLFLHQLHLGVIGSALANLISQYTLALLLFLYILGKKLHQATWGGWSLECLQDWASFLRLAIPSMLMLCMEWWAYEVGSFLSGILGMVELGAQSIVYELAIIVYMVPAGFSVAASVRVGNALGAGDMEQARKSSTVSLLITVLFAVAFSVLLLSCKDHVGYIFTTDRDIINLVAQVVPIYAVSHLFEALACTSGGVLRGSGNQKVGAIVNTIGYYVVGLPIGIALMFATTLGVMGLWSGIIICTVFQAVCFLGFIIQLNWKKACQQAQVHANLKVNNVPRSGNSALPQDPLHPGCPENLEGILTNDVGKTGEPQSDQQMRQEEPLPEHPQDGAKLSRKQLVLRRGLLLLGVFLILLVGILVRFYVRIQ
Protocol: HEK293 cells transfected with human MATE1 (HEK293/hMATE1) and vector alone (mock) were gifts from Dr. Inoue (Tokyo University of Pharmacy and Life Science). […] HEK293/mock and HEK293/hMATE1 cells were plated at a density of 3.0 × 10^5 cells/well on 24-well plates and cultured for two days before an uptake assay. […] Radioactivity was measured with a liquid scintillation counter (Hitachi Aloka Medical, Tokyo, Japan). Part of the lysate was used for the determination of total protein amount with Bio-Rad protein assay dye reagent. Uptake of MPP^+ was expressed as a cell-to-medium ratio (μL/mg protein) obtained by dividing the uptake amount by the concentration of substrate in the TM. Percentages of control were calculated as the ratio of MATE1-mediated uptake of MPP^+ that obtained after subtraction of the uptake of MPP^+ by mock cells in compound treated groups to that in control group.

Mock cells = test: Uptake of MPP+ by mock cells (background for MATE1-expressing cells); type: cell-based; settings: replicates and mean
Protocol: Dunnett's test was used for uptake study to compare the control group to groups treated with drugs.
Percentages of control were calculated as the ratio of MATE1-mediated uptake of MPP^+ that obtained after subtraction of the uptake of MPP^+ by mock cells in compound treated groups to that in control group.

Plasma concentration [1]: lower than 100 μM
MATE1-mediated uptake of [3H]MPP+, percentage of control (human MATE1; 50 μM test compound): 101.5%
MATE1-mediated uptake of [3H]MPP+, percentage of control (human MATE1; 500 μM test compound): 98.2%
Inhibitory effect on MATE1-mediated MPP+ uptake (human MATE1; 50 and 500 μM of each): No inhibitory effects
MATE1-mediated uptake of MPP+, % of Control (human MATE1; Oxonic acid 50 µM, mean): 101.5 % of Control
C/M ratio of MPP+ uptake, MATE1-expressing cells (human MATE1; Oxonic acid 50 µM, mean): 197 µL/mg protein
MATE1-mediated uptake of MPP+, % of Control (human MATE1; Oxonic acid 500 µM, mean): 98.2 % of Control
C/M ratio of MPP+ uptake, MATE1-expressing cells (human MATE1; Oxonic acid 500 µM, mean): 199 µL/mg protein
Structure (SMILES): O=C(O)c1nc(=O)[nH]c(=O)[nH]1 [oxonic acid]
MATE1-mediated uptake of MPP+, % of Control (human MATE1; Oxonic acid 50 µM): 93.3 % of Control and 90.1 % of Control and 121.0 % of Control
C/M ratio of MPP+ uptake, MATE1-expressing cells (human MATE1; Oxonic acid 50 µM): 177 µL/mg protein and 232 µL/mg protein and 183 µL/mg protein
MATE1-mediated uptake of MPP+, % of Control (human MATE1; Oxonic acid 500 µM): 118.1 % of Control and 83.7 % of Control and 92.8 % of Control
C/M ratio of MPP+ uptake, MATE1-expressing cells (human MATE1; Oxonic acid 500 µM): 173 µL/mg protein and 190 µL/mg protein and 235 µL/mg protein
C/M ratio of MPP+ uptake, Mock cells (Mock cells; Oxonic acid 50 µM): 18.7 µL/mg protein and 13.1 µL/mg protein and 12.3 µL/mg protein
C/M ratio of MPP+ uptake, Mock cells (Mock cells; Oxonic acid 50 µM, mean): 14.7 µL/mg protein
C/M ratio of MPP+ uptake, Mock cells (Mock cells; Oxonic acid 500 µM): 19.2 µL/mg protein and 28.0 µL/mg protein and 20.9 µL/mg protein
C/M ratio of MPP+ uptake, Mock cells (Mock cells; Oxonic acid 500 µM, mean): 22.7 µL/mg protein
